The text below walks through data of US20240376099A1, “COMPOUNDS AND COMPOSITIONS AS INHIBITORS OF ENDOSOMAL TOLL-LIKE RECEPTORS” (Novartis AG, priority 2016, published 2024).

The target of the experiment is T1, TLR8 (Homo sapiens, UniProt Q9NR97).
T1 sequence (Q9NR97 27-1041): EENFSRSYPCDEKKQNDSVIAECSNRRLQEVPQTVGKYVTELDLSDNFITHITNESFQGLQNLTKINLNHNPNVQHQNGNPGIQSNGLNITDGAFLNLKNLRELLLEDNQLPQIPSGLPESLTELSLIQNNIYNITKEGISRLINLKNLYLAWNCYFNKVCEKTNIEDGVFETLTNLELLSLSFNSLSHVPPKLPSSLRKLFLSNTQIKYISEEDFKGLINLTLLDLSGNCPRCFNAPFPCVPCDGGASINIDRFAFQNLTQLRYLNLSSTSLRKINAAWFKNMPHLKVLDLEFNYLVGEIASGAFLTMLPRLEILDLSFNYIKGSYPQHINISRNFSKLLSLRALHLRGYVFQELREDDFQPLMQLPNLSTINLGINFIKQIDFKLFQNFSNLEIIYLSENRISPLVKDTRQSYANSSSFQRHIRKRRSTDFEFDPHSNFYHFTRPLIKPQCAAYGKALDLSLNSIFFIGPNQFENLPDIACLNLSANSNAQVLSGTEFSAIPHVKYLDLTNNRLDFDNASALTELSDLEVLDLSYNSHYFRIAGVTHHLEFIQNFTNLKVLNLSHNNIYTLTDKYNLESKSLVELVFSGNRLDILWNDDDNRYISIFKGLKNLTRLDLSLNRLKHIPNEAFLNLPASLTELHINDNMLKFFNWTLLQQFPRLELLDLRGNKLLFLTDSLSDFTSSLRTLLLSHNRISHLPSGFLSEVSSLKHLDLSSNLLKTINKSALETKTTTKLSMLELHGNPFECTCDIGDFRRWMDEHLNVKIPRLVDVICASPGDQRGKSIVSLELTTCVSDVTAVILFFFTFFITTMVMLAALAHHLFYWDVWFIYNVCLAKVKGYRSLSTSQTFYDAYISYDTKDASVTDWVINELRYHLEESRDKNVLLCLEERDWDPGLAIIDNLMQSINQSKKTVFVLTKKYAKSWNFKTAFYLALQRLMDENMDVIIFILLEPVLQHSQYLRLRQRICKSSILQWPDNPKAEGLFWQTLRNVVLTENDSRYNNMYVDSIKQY
Briefly: huPBMC TLR8 Antagonist IL-6 TR-FRET Assay. Particulars: human PBMCs stimulated with ssRNA40 1 μg/ml (DOTAP), 14-16 hrs; IL-6 TR-FRET read-out. In kind it is cell-based. Also noted: Fresh blood was collected from normal human donors; endogenous in cells; host or cells: human PBMCs from fresh donor blood. The method, then:
Compounds were generally serially diluted (1/3) in DMSO and plated on sterile 384 well tissue culture plates and stored until ready for use. Each ten-point dilution was typically plated in triplicate in parallel rows.
Fresh blood was collected from normal human donors underwritten informed consent in heparinized syringes on the morning of the assay. The blood was diluted in RPMI-1640 medium and the white blood cells were separated from red blood cells by centrifugation (800 g 15′ 0 acceleration, 0 brake) on a Ficoll cushion. Peripheral blood mononuclear cells (PBMCs) were separated from platelets by a series of low-speed centrifugations (1000RPM 10′) in PBS+5% HI—FBS and 1 mM EDTA. Purified PBMCs were re-suspended in assay medium (RPMI-1640 w Glutamax (Invitrogen) supplemented with 5% HI—FBS, 10 mM HEPES, 50 uM β-mercaptoethanol, and 100 mG/L penicillin/streptomycin cocktail). Viable PBMCs were counted on a hemacytometer and kept on ice until ready for plating.
A 4× concentration (4 ug/ml or 40 ug/ml for TLR8 or TLR7 assays, respectively) of the TLR7/8 agonist ssRNA40 (IDT) was complexed with 10% DOTAP (Roche) in assay medium for 30 min prior to addition to the PBMC suspension (5 million cells/ml). After addition, the final concentration of ssRNA40 in the TLR7/8 stimulated PBMC suspension was 1 μg/ml for TLR8 assay, and 10 μg/mL for the TLR7 assay. The final DOTAP concentration was 2.5%. Diluted PBMCs (5 million cells/ml) were treated with 4×TLR9 agonist ODN2216 (Invivogen). Final concentration of ODN2216 in TLR9 stimulated PBMC suspension was 0.3 μM.
Agonist stimulated PBMCs were plated on the compound treated 384 well plates at 150,000 cells/well. Un-stimulated PBMCs were plated as controls on each plate. Plating volume was 40 μL per well. DMSO concentration in each well was 0.25%.
A separate plate, without compounds, with titrations of ssRNA40 and ODN2216 was included in every assay to measure agonist response of each donor's PBMC prep. Assay plates were placed in a tissue culture incubator (37° C., 5% CO2) for 14-16 hrs. After this incubation, the plates were centrifuged and stored at −20° C. until they were assayed.
IL-6 TR-FRET Assay for TLR8 activity: • 1) Cisbio Human IL-6 kit, 20,000 tests (62TNFPEC), and GNF High-Base TC 384 well plates (cat #789163G) were used; • 2) the Anti-TIL-6 Cryptate conjugate and the Anti-IL-6 XL665 conjugate were diluted 1:20 in Reconstitution Buffer; • 3) a 1:1 mixture of 3 μl/well Anti-IL-6 Cryptate conjugate and 3 μl/well Anti-IL-6 XL665 conjugate was prepared; • 4) 6 μl/well HTRF dilution mastermix was added to 6 μl of transferred supernatant samples in proxiplates; • 5) The plates were incubated for 3 hrs at rt in the dark; and • 6) the levels of IL-6 production was measured using an Envision plate reader (665 nm (emmission)/590 nm (excitation)) with HTRF settings and ratiometric read-out: (XL665 emission/Eu Cryptate emission)×10,000. IFNα2b AlphaLISA Assay for TLR7 or TLR9 activity After thawing the assay plates, 6 μL of supernatant samples were transferred to a low-volume AlphaPlate 384SW (Perkin-Elmer). The concentration of IFNα in supernatants was measured using the IFNα2b AlphaLISA Assay (Perkin-Elmer: AL297F). 3 μL of IFNα acceptor beads/biotinylated antibody solution was added first, using laboratory automation. After an hour incubation, […] of streptavidin […] bead solution was added. The plates containing this mixture were incubated in the dark for an hour and read on an appropriate plate reader at reading parameters set by the manufacturer. (Envision, EnSpire: Perkin-Elmer).
As usually defined, the IC50 is the concentration needed to halve the response being measured. On to `Cc1cc(N2CCc3c(c(C)nn3CC34CCC(N(C)C(C)C)(CC3)CC4)C2)c2cnn(C)c2n1` [compound 78, 4-((5-(1,6-dimethyl-1H-pyrazolo[3,4-b]pyridin-4-yl)-3-methyl-4,5,6,7-tetrahydro-1H-pyrazolo[4,3-c]pyridin-1-yl)methyl)-N-isopropyl-N-methylbicyclo[2.2.2]octan-1-amine], for which the IC50 worked out at 474 nM.

As to `Cc1cc(N2CCc3c(c(C)nn3CC34CCC(N)(CC3)CO4)C2)c2cnn(C)c2n1` [compound 81, 1-((5-(1,6-dimethyl-1H-pyrazolo[3,4-b]pyridin-4-yl)-3-methyl-4,5,6,7-tetrahydro-1H-pyrazolo[4,3-c]pyridin-1-yl)methyl)-2-oxabicyclo[2.2.2]octan-4-amine], the IC50 came to 395 nM.

In the case of `Cc1cc(N2CCc3c(c(C)nn3CC34CCC(N5CCCC5)(CC3)CO4)C2)c2cnn(C)c2n1` [compound 82, 5-(1,6-dimethyl-1H-pyrazolo[3,4-b]pyridin-4-yl)-3-methyl-1-((4-(pyrrolidin-1-yl)-2-oxabicyclo[2.2.2]octan-1-yl)methyl)-4,5,6,7-tetrahydro-1H-pyrazolo[4,3-c]pyridine], the IC50 is 486 nM.

Regarding `Cc1nn(CC23CCC(N)(CC2)CC3)c2c1CN(c1ccnc(-c3ccc(F)cc3)c1)CC2` [compound 87, 4-((5-(2-(4-fluorophenyl)pyridin-4-yl)-3-methyl-4,5,6,7-tetrahydro-1H-pyrazolo[4,3-c]pyridin-1-yl)methyl)bicyclo[2.2.2]octan-1-amine], the IC50 was 1100 nM.

With `Cc1ccc(-c2cc(N3CCc4c(c(C)nn4CC45CCC(N)(CC4)CC5)C3)ccn2)c(F)c1` [compound 88, 4-((5-(2-(2-fluoro-4-methylphenyl)pyridin-4-yl)-3-methyl-4,5,6,7-tetrahydro-1H-pyrazolo[4,3-c]pyridin-1-yl)methyl)bicyclo[2.2.2]octan-1-amine], the IC50 is 715 nM.

Regarding `COc1ccc(-c2cc(N3CCc4c(c(C)nn4CC45CCC(N)(CC4)CC5)C3)ccn2)cc1` [compound 89, 4-((5-(2-(4-methoxyphenyl)pyridin-4-yl)-3-methyl-4,5,6,7-tetrahydro-1H-pyrazolo[4,3-c]pyridin-1-yl)methyl)bicyclo[2.2.2]octan-1-amine], the IC50 came out at 622 nM.

Take `Cc1ccc(-c2cc(N3CCc4c(c(C)nn4CC45CCC(N)(CC4)CC5)C3)ccn2)cc1` [compound 90, 4-((3-methyl-5-(2-(p-tolyl)pyridin-4-yl)-4,5,6,7-tetrahydro-1H-pyrazolo[4,3-c]pyridin-1-yl)methyl)bicyclo[2.2.2]octan-1-amine]: the IC50 was 1010 nM.

Consider `Cc1cc(N2CCc3c(c(C)nn3CC34CCC(N)(CC3)CC4)C2)cc(-c2ccccc2)n1` [compound 93, 4-((3-methyl-5-(2-methyl-6-phenylpyridin-4-yl)-4,5,6,7-tetrahydro-1H-pyrazolo[4,3-c]pyridin-1-yl)methyl)bicyclo[2.2.2]octan-1-amine], for which the IC50 came out at 983 nM.

As for `Cc1nn(CC23CCC(N)(CC2)CC3)c2c1CN(c1ccnc(-c3ccccn3)c1)CC2` [compound 94, 4-((5-([2,2'-bipyridin]-4-yl)-3-methyl-4,5,6,7-tetrahydro-1H-pyrazolo[4,3-c]pyridin-1-yl)methyl)bicyclo[2.2.2]octan-1-amine], the IC50 was determined as 1110 nM.

With `Cc1cc(N2CCc3c(c(C)nn3CC34CCC(N5CCCCC5)(CC3)CO4)C2)c2cnn(C)c2n1` [compound 95, 5-(1,6-dimethyl-1H-pyrazolo[3,4-b]pyridin-4-yl)-3-methyl-1-((4-(piperidin-1-yl)-2-oxabicyclo[2.2.2]octan-1-yl)methyl)-4,5,6,7-tetrahydro-1H-pyrazolo[4,3-c]pyridine], the IC50 was determined as 85 nM.

For the molecule `COCC(C)NC12CCC(Cn3nc(C)c4c3CCN(c3cc(C)nc5c3cnn5C)C4)(CC1)CC2` (stereo not drawn) [compound 96, 4-((5-(1,6-dimethyl-1H-pyrazolo[3,4-b]pyridin-4-yl)-3-methyl-4,5,6,7-tetrahydro-1H-pyrazolo[4,3-c]pyridin-1-yl)methyl)-N-(1-methoxypropan-2-yl)bicyclo[2.2.2]octan-1-amine], the IC50 worked out at 775 nM.

Regarding `CCN(C)C12CCC(Cn3nc(C)c4c3CCN(c3cc(C)nc5c3cnn5C)C4)(CC1)CC2` [compound 97, 4-((5-(1,6-dimethyl-1H-pyrazolo[3,4-b]pyridin-4-yl)-3-methyl-4,5,6,7-tetrahydro-1H-pyrazolo[4,3-c]pyridin-1-yl)methyl)-N-ethyl-N-methylbicyclo[2.2.2]octan-1-amine], the IC50 was 89 nM.

For `Cc1cc(N2CCc3c(c(C)nn3CC34CCC(N(C)C)(CC3)CO4)C2)c2cnn(C)c2n1` [compound 98, 1-((5-(1,6-dimethyl-1H-pyrazolo[3,4-b]pyridin-4-yl)-3-methyl-4,5,6,7-tetrahydro-1H-pyrazolo[4,3-c]pyridin-1-yl)methyl)-N,N-dimethyl-2-oxabicyclo[2.2.2]octan-4-amine], the IC50 was determined as 718 nM.

In the case of `Cc1nn(CC23CCC(N)(CC2)CC3)c2c1CN(c1nc(Cl)nc3c1COC3)CC2` [compound 103, 4-((5-(2-chloro-5,7-dihydrofuro[3,4-d]pyrimidin-4-yl)-3-methyl-4,5,6,7-tetrahydro-1H-pyrazolo[4,3-c]pyridin-1-yl)methyl)bicyclo[2.2.2]octan-1-amine], the IC50 is 1420 nM.

On to `Cc1cc(N2CCc3c(c(C)nn3CC34CCC(NC(=O)C5COCCN5C)(CC3)CC4)C2)c2cnn(C)c2n1` (stereo not drawn) [compound 122, N-(4-((5-(1,6-dimethyl-1H-pyrazolo[3,4-b]pyridin-4-yl)-3-methyl-4,5,6,7-tetrahydro-1H-pyrazolo[4,3-c]pyridin-1-yl)methyl)bicyclo[2.2.2]octan-1-yl)-4-methylmorpholine-3-carboxamide], for which the IC50 worked out at 922 nM.
